The NIST ThermoML archive (doi:10.1021/je1012235)
± gives the expanded uncertainty stated by the source.

Conditions: 101.33 kPa, Liquid; for mass density: Vibrating tube method

SMILES	viscosity (278.15 K)	mass density (278.15 K)	viscosity (283.15 K)	mass density (283.15 K)	viscosity (288.15 K)	mass density (288.15 K)	viscosity (293.15 K)	mass density (293.15 K)	viscosity (298.15 K)	mass density (298.15 K)	viscosity (303.15 K)	mass density (303.15 K)	viscosity (308.15 K)	mass density (308.15 K)	viscosity (313.15 K)	mass density (313.15 K)	viscosity (318.15 K)	mass density (318.15 K)	viscosity (323.15 K)	mass density (323.15 K)	further results
CCCCCCCC/C=C\CCCCCCCCCC(=O)OC [methyl cis-11-eicosenoate]	14.34 ± 0.22 mPa·s	884.8 ± 1.2 kg/m3	11.97 ± 0.19 mPa·s	881.1 ± 1.2 kg/m3	10.13 ± 0.16 mPa·s	877.5 ± 1.2 kg/m3	8.667 ± 0.14 mPa·s	873.8 ± 1.2 kg/m3	7.488 ± 0.12 mPa·s	870.2 ± 1.2 kg/m3	6.528 ± 0.1 mPa·s	866.6 ± 1.2 kg/m3	5.738 ± 0.09 mPa·s	863 ± 1 kg/m3	5.08 ± 0.08 mPa·s	859.5 ± 1.2 kg/m3	4.529 ± 0.072 mPa·s	855.9 ± 1.2 kg/m3	4.062 ± 0.065 mPa·s	852.3 ± 1.2 kg/m3	viscosity (328.15 K): 3.665 ± 0.059 mPa·s; mass density (328.15 K): 848.8 ± 1.2 kg/m3; viscosity (333.15 K): 3.323 ± 0.054 mPa·s; mass density (333.15 K): 845.2 ± 1.2 kg/m3; viscosity (338.15 K): 3.028 ± 0.049 mPa·s; mass density (338.15 K): 841.7 ± 1.2 kg/m3; viscosity (343.15 K): 2.771 ± 0.045 mPa·s; mass density (343.15 K): 838.2 ± 1.2 kg/m3; viscosity (348.15 K): 2.546 ± 0.042 mPa·s; mass density (348.15 K): 834.6 ± 1.2 kg/m3; viscosity (353.15 K): 2.348 ± 0.039 mPa·s; mass density (353.15 K): 831.1 ± 1.2 kg/m3; viscosity (358.15 K): 2.174 ± 0.036 mPa·s; mass density (358.15 K): 827.6 ± 1.2 kg/m3; viscosity (363.15 K): 2.019 ± 0.034 mPa·s; mass density (363.15 K): 824.1 ± 1.2 kg/m3; viscosity (368.15 K): 1.881 ± 0.032 mPa·s; mass density (368.15 K): 820.7 ± 1.2 kg/m3; viscosity (373.15 K): 1.758 ± 0.03 mPa·s; mass density (373.15 K): 817.3 ± 1.2 kg/m3
CCCCCCCC/C=C\CCCCCCCCCCCC(=O)OC [methyl (Z)-13-docosenoate]	18.09 ± 0.23 mPa·s	881.6 ± 1 kg/m3	14.94 ± 0.19 mPa·s	877.9 ± 1 kg/m3	12.56 ± 0.16 mPa·s	874.3 ± 1 kg/m3	10.66 ± 0.14 mPa·s	870.7 ± 1 kg/m3	9.141 ± 0.12 mPa·s	867.1 ± 1 kg/m3	7.907 ± 0.1 mPa·s	863.6 ± 1 kg/m3	6.917 ± 0.09 mPa·s	860 ± 1 kg/m3	5.958 ± 0.078 mPa·s	856.5 ± 1 kg/m3	5.402 ± 0.071 mPa·s	853 ± 1 kg/m3	4.76 ± 0.063 mPa·s	849.4 ± 1 kg/m3	viscosity (328.15 K): 4.331 ± 0.058 mPa·s; mass density (328.15 K): 845.9 ± 1 kg/m3; viscosity (333.15 K): 3.91 ± 0.053 mPa·s; mass density (333.15 K): 842.4 ± 1 kg/m3; viscosity (338.15 K): 3.548 ± 0.048 mPa·s; mass density (338.15 K): 839 ± 1 kg/m3; viscosity (343.15 K): 3.234 ± 0.044 mPa·s; mass density (343.15 K): 835.5 ± 1 kg/m3; viscosity (348.15 K): 2.961 ± 0.041 mPa·s; mass density (348.15 K): 832 ± 1 kg/m3; viscosity (353.15 K): 2.707 ± 0.038 mPa·s; mass density (353.15 K): 828.6 ± 1 kg/m3; viscosity (358.15 K): 2.51 ± 0.035 mPa·s; mass density (358.15 K): 825.1 ± 1 kg/m3; viscosity (363.15 K): 2.322 ± 0.033 mPa·s; mass density (363.15 K): 821.7 ± 1 kg/m3
